From patent US9278954B2, “Pyrrolidine derivatives, pharmaceutical compositions and uses thereof” (Boehringer Ingelheim International GmbH, priority 2013, dated 2016)

target: human ACC2 (Homo sapiens (Human), UniProt O00763); assay: ACC2 assay (spectrophotometric 384 well assay, NADH-linked kinetic method); assay type: biochemical; conditions: hACC2 construct lacking the 128 N-terminal amino acids; 25° C., 340 nm over 15 minutes
Procedure: Spectrophotometric 384 Well Assay
Malonyl CoA formation by acetyl CoA carboxylases is stoichometrically linked to the consumption of ATP. ACC2 activity is measured in a NADH-linked kinetic method measuring ADP generated during the ACC reaction using a coupled lactate dehydrogenase/pyruvate kinase reaction.
The protein is then expressed in insect cells using a baculoviral expression system. Protein purification is performed by anion exchange.
All compounds are dissolved in dimethyl sulfoxide (DMSO) to a concentration of 10 mM.
The enzymatic reaction is then started by addition of a mixture of NADH, acetyl
Coenzyme A (both […].) and ATP (500 uM f.c.). The decrease of the optical density (slope S) is then determined at 25° C. at a wavelength of 340 nm over 15 minutes in a spectrophotometric reader.
Each assay microtiter plate contains wells with vehicle instead of compound as controls for the non-inhibited enzyme (100% CTL; ‘HIGH’) and wells without acetyl-CoA as controls for non-specific NADH degradation (0% CTL; ‘LOW’).

Sequence of human ACC2 (O00763 129-2458): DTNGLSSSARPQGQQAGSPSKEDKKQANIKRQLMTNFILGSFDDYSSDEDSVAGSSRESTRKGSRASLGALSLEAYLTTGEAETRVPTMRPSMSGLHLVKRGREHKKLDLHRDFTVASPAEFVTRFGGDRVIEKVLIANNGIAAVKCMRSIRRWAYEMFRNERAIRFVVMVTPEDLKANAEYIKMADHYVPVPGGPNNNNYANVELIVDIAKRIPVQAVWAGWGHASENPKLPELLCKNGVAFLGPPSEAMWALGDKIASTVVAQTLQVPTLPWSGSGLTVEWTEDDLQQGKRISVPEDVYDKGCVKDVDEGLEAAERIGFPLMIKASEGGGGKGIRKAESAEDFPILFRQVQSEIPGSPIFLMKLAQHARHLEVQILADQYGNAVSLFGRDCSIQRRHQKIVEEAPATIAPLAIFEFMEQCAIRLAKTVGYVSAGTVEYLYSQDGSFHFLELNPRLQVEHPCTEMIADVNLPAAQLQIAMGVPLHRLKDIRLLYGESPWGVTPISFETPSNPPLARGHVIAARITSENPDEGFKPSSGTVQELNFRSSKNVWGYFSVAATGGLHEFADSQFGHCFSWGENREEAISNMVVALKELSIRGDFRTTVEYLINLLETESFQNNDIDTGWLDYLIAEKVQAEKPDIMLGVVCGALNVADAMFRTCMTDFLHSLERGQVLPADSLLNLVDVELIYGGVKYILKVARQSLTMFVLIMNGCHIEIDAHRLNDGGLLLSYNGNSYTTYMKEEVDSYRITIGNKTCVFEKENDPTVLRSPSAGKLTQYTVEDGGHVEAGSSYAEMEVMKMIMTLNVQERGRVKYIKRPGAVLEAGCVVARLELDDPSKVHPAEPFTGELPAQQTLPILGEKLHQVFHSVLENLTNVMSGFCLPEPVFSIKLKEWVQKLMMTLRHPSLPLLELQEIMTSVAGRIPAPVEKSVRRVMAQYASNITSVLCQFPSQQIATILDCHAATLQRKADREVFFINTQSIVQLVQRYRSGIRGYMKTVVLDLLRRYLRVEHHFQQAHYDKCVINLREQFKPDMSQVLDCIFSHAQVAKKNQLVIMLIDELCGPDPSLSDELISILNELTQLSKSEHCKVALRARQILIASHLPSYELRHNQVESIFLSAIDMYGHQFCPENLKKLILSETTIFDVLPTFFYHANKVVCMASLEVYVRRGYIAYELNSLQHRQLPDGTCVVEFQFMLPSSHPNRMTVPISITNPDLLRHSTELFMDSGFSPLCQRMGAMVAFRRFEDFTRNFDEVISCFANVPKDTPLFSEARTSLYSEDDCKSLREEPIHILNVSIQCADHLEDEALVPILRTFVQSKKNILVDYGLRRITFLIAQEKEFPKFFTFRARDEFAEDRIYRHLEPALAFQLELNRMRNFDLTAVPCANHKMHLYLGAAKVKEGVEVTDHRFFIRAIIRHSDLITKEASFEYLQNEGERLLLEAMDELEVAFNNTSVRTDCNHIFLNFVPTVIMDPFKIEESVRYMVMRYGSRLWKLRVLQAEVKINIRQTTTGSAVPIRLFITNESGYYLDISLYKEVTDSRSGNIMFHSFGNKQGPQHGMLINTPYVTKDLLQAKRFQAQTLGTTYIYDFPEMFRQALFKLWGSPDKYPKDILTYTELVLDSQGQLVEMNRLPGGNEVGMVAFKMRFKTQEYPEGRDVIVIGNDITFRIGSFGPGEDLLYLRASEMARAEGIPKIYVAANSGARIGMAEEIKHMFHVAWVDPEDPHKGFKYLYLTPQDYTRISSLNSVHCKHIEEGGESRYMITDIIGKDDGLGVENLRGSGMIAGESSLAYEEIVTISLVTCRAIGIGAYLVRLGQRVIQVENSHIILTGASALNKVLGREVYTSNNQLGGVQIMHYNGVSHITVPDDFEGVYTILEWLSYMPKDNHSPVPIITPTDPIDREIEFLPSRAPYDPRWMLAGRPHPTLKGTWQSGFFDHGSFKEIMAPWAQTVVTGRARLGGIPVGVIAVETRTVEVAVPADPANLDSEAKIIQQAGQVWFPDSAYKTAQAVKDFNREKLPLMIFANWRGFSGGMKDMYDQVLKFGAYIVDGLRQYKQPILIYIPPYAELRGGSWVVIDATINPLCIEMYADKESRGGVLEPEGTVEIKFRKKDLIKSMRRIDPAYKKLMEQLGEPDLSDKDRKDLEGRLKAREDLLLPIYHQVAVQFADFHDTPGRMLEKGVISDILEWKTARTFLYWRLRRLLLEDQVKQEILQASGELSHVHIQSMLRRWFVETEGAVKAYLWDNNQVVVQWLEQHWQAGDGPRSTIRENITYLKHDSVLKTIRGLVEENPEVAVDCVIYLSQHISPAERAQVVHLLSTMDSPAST

Row | Compound | IC50
1 | CCCNc1nccc(N2CC[C@@H](Oc3ccc(C(C)C(=O)NC4COC4)cc3)C2)c1F (some centres unmarked) [Example 1.61] | 626 nM
2 | CC(C(=O)NCC(F)(F)F)c1ccc(O[C@@H]2CCN(c3ccc(OCC4CC4(F)F)cn3)C2)cc1 (some centres unmarked) [Example 1.62] | 637 nM
3 | CC(C)NC(=O)C(C)c1ccc(O[C@@H]2CCN(c3ccc(OCC4CC4(F)F)cn3)C2)cc1 (some centres unmarked) [Example 1.63] | 652 nM
4 | CC(C(=O)NCC(F)(F)F)c1ccc(O[C@@H]2CCN(c3ncnc(OCC(C)(F)F)c3F)C2)cc1 (some centres unmarked) [Example 1.64] | 658 nM
5 | CCCNC(=O)C(C)c1ccc(O[C@@H]2CCN(c3nc(N(C)C)ncc3F)C2)cc1 (some centres unmarked) [Example 1.65] | 667 nM
6 | CC(C(=O)NC1CCC1)c1ccc(O[C@@H]2CCN(c3ncnc(OCC(C)(F)F)c3F)C2)cc1 (some centres unmarked) [Example 1.66] | 687 nM
7 | CC(C(=O)NC1COC1)c1ccc(O[C@@H]2CCN(c3ccc(OCC4CC4(F)F)cn3)C2)cc1 (some centres unmarked) [Example 1.67] | 706 nM
8 | CC(C(=O)NC1COC1)c1ccc(O[C@@H]2CCN(c3nc(N(C)C)ncc3F)C2)cc1 (some centres unmarked) [Example 1.68] | 724 nM
9 | CC(C(=O)NCC(F)(F)F)c1ccc(O[C@@H]2CCN(c3nc(N(C)C)ncc3F)C2)cc1 (some centres unmarked) [Example 1.69] | 748 nM
10 | CC(C(=O)Nc1cncnc1)c1ccc(O[C@@H]2CCN(c3ccc(OCC4CC4(F)F)cn3)C2)cc1 (some centres unmarked) [Example 1.70] | 749 nM
11 | C=CCCNC(=O)C(C)c1ccc(O[C@@H]2CCN(c3ccnc(NCCC)c3F)C2)cc1 (some centres unmarked) [Example 1.71] | 779 nM
12 | CCCNc1nccc(N2CC[C@@H](Oc3ccc(C(C)C(=O)NC(C)CO)cc3)C2)c1F (some centres unmarked) [Example 1.72] | 789 nM
13 | CCN(C)C(=O)C(C)c1ccc(O[C@@H]2CCN(c3ccc(OCC4CC4(F)F)cn3)C2)cc1 (some centres unmarked) [Example 1.73] | 798 nM
14 | CC(C(=O)NCC(F)(F)F)c1ccc(O[C@@H]2CCN(c3ncnc(OCC(C)(C)O)c3Cl)C2)cc1 (some centres unmarked) [Example 1.74] | 813 nM
15 | CCCNC(=O)C(C)c1ccc(O[C@@H]2CCN(c3ncnc(OCC(C)(F)F)c3F)C2)cc1 (some centres unmarked) [Example 1.75] | 818 nM
16 | CC(CO)NC(=O)C(C)c1ccc(O[C@@H]2CCN(c3ncnc(OCC(C)(F)F)c3F)C2)cc1 (some centres unmarked) [Example 1.76] | 838 nM
17 | CC(CO)NC(=O)C(C)c1ccc(O[C@@H]2CCN(c3nc(N(C)C)ncc3F)C2)cc1 (some centres unmarked) [Example 1.77] | 849 nM
18 | CC(C(=O)NC1CCC1)c1ccc(O[C@@H]2CCN(c3nc(N(C)C)ncc3F)C2)cc1 (some centres unmarked) [Example 1.78] | 878 nM

Row | Compound | IC50
19 | CC(C)CNC(=O)C(C)c1ccc(O[C@@H]2CCN(c3ccc(OCC4CC4(F)F)cn3)C2)cc1 (some centres unmarked) [Example 1.79] | 907 nM
20 | CC(C)NC(=O)C(C)c1ccc(O[C@@H]2CCN(c3ncnc(OCC(C)(F)F)c3F)C2)cc1 (some centres unmarked) [Example 1.80] | 907 nM
21 | CC(C)NC(=O)C(C)c1ccc(O[C@@H]2CCN(c3nc(N(C)C)ncc3F)C2)cc1 (some centres unmarked) [Example 1.81] | 934 nM
22 | CC(C(=O)NC1CCC1)c1ccc(O[C@@H]2CCN(c3ccc(OCC4CC4(F)F)cn3)C2)cc1 (some centres unmarked) [Example 1.82] | 940 nM
23 | CC(C(=O)NCC1CC1)c1ccc(O[C@@H]2CCN(c3ncnc(OCC(C)(C)O)c3Cl)C2)cc1 (some centres unmarked) [Example 1.83] | 1070 nM
24 | CC(CC#N)NC(=O)C(C)c1ccc(O[C@@H]2CCN(c3ccc(OCC4CC4(F)F)cn3)C2)cc1 (some centres unmarked) [Example 1.84] | 1120 nM
25 | CC(C(=O)NCC1COC1)c1ccc(O[C@@H]2CCN(c3ncnc(OCC(C)(C)O)c3Cl)C2)cc1 (some centres unmarked) [Example 1.85] | 1220 nM
26 | CC(C(=O)NCCCO)c1ccc(O[C@@H]2CCN(c3ccc(OCC4CC4(F)F)cn3)C2)cc1 (some centres unmarked) [Example 1.86] | 1380 nM
27 | CC(=O)Nc1nc(CNC(=O)C(C)c2ccc(O[C@@H]3CCN(c4ncnc(OCC(C)(F)F)c4F)C3)cc2)cs1 (some centres unmarked) [Example 1.87] | 1380 nM
28 | CC(C(=O)NC[C@@H](C)O)c1ccc(O[C@@H]2CCN(c3ccc(OCC4CC4(F)F)cn3)C2)cc1 (some centres unmarked) [Example 1.88] | 1780 nM
29 | CC(C(=O)NC[C@H](C)O)c1ccc(O[C@@H]2CCN(c3ccc(OCC4CC4(F)F)cn3)C2)cc1 (some centres unmarked) [Example 1.89] | 1880 nM
30 | C#CC(C)NC(=O)C(C)c1ccc(O[C@@H]2CCN(c3ccnc(NCCC)c3F)C2)cc1 (some centres unmarked) [Example 1.90] | 2230 nM
31 | CC(C(=O)NC1CCOCC1)c1ccc(O[C@@H]2CCN(c3ncnc(OCC(C)(C)O)c3Cl)C2)cc1 (some centres unmarked) [Example 1.91] | 2920 nM
32 | CCCNc1nccc(N2CC[C@@H](Oc3ccc(C(C)C(=O)NCC4CC(F)(F)C4)cc3)C2)c1F (some centres unmarked) [Example 1.92] | 3700 nM
33 | CC(C(=O)N1CC(F)C1)c1ccc(O[C@@H]2CCN(c3nc(N(C)C)ncc3F)C2)cc1 (some centres unmarked) [Example 1.93] | 5480 nM
34 | CCNC(=O)C(C)c1ccc(O[C@@H]2CCN(c3ccnc(C4CC4)n3)C2)cc1 (stereo partly drawn) [Example 5, 2-(4-[1-(2-Cyclopropyl-pyrimidin-4-yl)-(R)-pyrrolidin-3-yloxy]-phenyl)-N-ethyl-propionamide] | 1760 nM
35 | CCNC(=O)C(C)c1ccc(O[C@@H]2CCN(c3ccc(OC4CCC4)cc3)C2)cc1 (stereo partly drawn) [Example 7.1, 2-(4-[1-(4-Cyclobutoxy-phenyl)-(R)-pyrrolidin-3-yloxy]-phenyl)-N-ethyl-propionamide] | 41 nM

The next lines start with the values.

Row | IC50 | Compound
36 | 95 nM | CCNC(=O)C(C)c1ccc(O[C@@H]2CCN(c3ccnc(N(CC)CC)n3)C2)cc1 (stereo partly drawn) [Example 2.1, (R)-2-(4-[1-(2-Diethylamino-pyrimidin-4-yl)-pyrrolidin-3-lyoxy]-phenyl)-N-ethyl-propionamide]
37 | 179 nM | CCNC(=O)C(C)c1ccc(O[C@@H]2CCN(c3ccnc(N(C)CC)n3)C2)cc1 (some centres unmarked) [Example 2.2]
38 | 188 nM | CCCN(C)c1nccc(N2CC[C@@H](Oc3ccc(C(C)C(=O)NCC)cc3)C2)n1 (some centres unmarked) [Example 2.3]
39 | 399 nM | CCNC(=O)C(C)c1ccc(O[C@@H]2CCN(c3ccnc(N4CCC(F)(F)C4)n3)C2)cc1 (some centres unmarked) [Example 2.4]
40 | 575 nM | CCNC(=O)C(C)c1ccc(O[C@@H]2CCN(c3ccnc(N(C)C4CC4)n3)C2)cc1 (some centres unmarked) [Example 2.5]
41 | 808 nM | CCNC(=O)C(C)c1ccc(O[C@@H]2CCN(c3ccnc(N4CCOCC4)n3)C2)cc1 (some centres unmarked) [Example 2.6]
42 | 235 nM | CC(C(=O)NC1CC1)c1ccc(O[C@@H]2CCN(c3ncnc(OCC(C)(C)O)c3F)C2)cc1 (stereo partly drawn) [Example 3.1, N-Cyclopropyl-2-(4-(1-[5-fluoro-6-(2-hydroxy-2-methyl-propoxy)-pyrimidin-4-yl]-(R)-pyrrolidin-3-yloxy)-phenyl)-propionamide]
43 | 259 nM | CC(C(=O)NC1CC1C)c1ccc(O[C@@H]2CCN(c3ncnc(OCC(C)(C)O)c3F)C2)cc1 (some centres unmarked) [Example 3.2]
44 | 280 nM | CCCNc1ncnc(N2CC[C@@H](Oc3ccc(C(C)C(=O)NC4CC4)cc3)C2)c1F (some centres unmarked) [Example 3.3]
45 | 300 nM | CC(C(=O)Nc1cccc(F)c1)c1ccc(O[C@@H]2CCN(c3nc(N(C)C)ncc3F)C2)cc1 (some centres unmarked) [Example 3.4]
46 | 318 nM | CC(C(=O)Nc1cccnc1)c1ccc(O[C@@H]2CCN(c3ncnc(OCC(C)(C)O)c3Cl)C2)cc1 (some centres unmarked) [Example 3.5]
47 | 352 nM | CC(C(=O)Nc1cccnc1)c1ccc(O[C@@H]2CCN(c3nc(N(C)C)ncc3F)C2)cc1 (some centres unmarked) [Example 3.6]
48 | 613 nM | CC(C(=O)NCC(F)F)c1ccc(O[C@@H]2CCN(c3ncnc(OCC(C)(C)O)c3F)C2)cc1 (some centres unmarked) [Example 3.7]
49 | 622 nM | CCNC(=O)C(C)c1ccc(O[C@@H]2CCN(c3ncnc(OCC(C)(C)O)c3F)C2)cc1 (some centres unmarked) [Example 3.8]
50 | 739 nM | CCCNc1ncnc(N2CC[C@@H](Oc3ccc(C(C)C(=O)NC4CC4C)cc3)C2)c1F (some centres unmarked) [Example 3.9]
51 | 955 nM | CCCNc1ncnc(N2CC[C@@H](Oc3ccc(C(C)C(=O)NCC(F)F)cc3)C2)c1F (some centres unmarked) [Example 3.10]
52 | 1030 nM | CCCNc1ncnc(N2CC[C@@H](Oc3ccc(C(C)C(=O)NCC)cc3)C2)c1F (some centres unmarked) [Example 3.12]
53 | 288 nM | CCNC(=O)C(C)c1ccc(O[C@@H]2CCN(c3ccc(OCC)cc3)C2)cc1 (stereo partly drawn) [Example 4.1, 2-(4-[1-(4-Ethoxyl-phenyl)-(R)-pyrrolidin-3-yloxy]-phenyl)-N-ethyl-propionamide]
54 | 575 nM | CCNC(=O)C(C)c1ccc(O[C@@H]2CCN(c3ccc(OCC)cc3F)C2)cc1 (some centres unmarked) [Example 4.2]
55 | 72 nM | CCNC(=O)C(C)c1ccc(O[C@@H]2CCN(c3ccc(OC4CCCC4)cc3)C2)cc1 (some centres unmarked) [Example 7.2]
56 | 190 nM | CCNC(=O)C(C)c1ccc(O[C@@H]2CCN(c3ccc(OCC4CC4(F)F)cn3)C2)cc1 (some centres unmarked) [Example 7.3]
57 | 224 nM | CCNC(=O)C(C)c1ccc(O[C@@H]2CCN(c3cccc(C(F)(F)F)c3)C2)cc1 (some centres unmarked) [Example 7.4]
58 | 225 nM | CCCOc1ccc(N2CC[C@@H](Oc3ccc(C(C)C(=O)NCC)cc3)C2)c(Cl)c1 (some centres unmarked) [Example 7.5]
59 | 229 nM | CCNC(=O)C(C)c1ccc(O[C@@H]2CCN(c3ccc(F)c(C(F)(F)F)c3)C2)cc1 (some centres unmarked) [Example 7.6]
60 | 274 nM | CCNC(=O)C(C)c1ccc(O[C@@H]2CCN(c3ccc(OCC4CC4)cc3)C2)cc1 (some centres unmarked) [Example 7.8]
61 | 315 nM | CCNC(=O)C(C)c1ccc(O[C@@H]2CCN(c3cccc(C(F)(F)F)n3)C2)cc1 (some centres unmarked) [Example 7.9]
62 | 329 nM | CCNC(=O)C(C)c1ccc(O[C@@H]2CCN(c3ccc4c(c3)OCCCO4)C2)cc1 (some centres unmarked) [Example 7.10]
63 | 365 nM | CCNC(=O)C(C)c1ccc(O[C@@H]2CCN(c3cc(C(F)(F)F)ccc3C)C2)cc1 (some centres unmarked) [Example 7.11]
64 | 407 nM | CCNC(=O)C(C)c1ccc(O[C@@H]2CCN(c3ccc(OC(C)CC)cc3)C2)cc1 (some centres unmarked) [Example 7.14]
65 | 408 nM | CCNC(=O)C(C)c1ccc(O[C@@H]2CCN(c3cccc(C(F)F)n3)C2)cc1 (some centres unmarked) [Example 7.15]
